Molecules are shown by their SMILES.

From ChEMBL document CHEMBL1148670, “Keto-1,3,4-oxadiazoles as cathepsin K inhibitors” (Bioorg Med Chem Lett, 2006) come the findings set out here.

Common to all, as to conditions: read-out: Ki app
One experiment has as its target Procathepsin L (Homo sapiens, UniProt P07711). Kind of experiment: Inhibition of human cathepsin L.
For a further experiment, the target named is Cathepsin B (Homo sapiens, UniProt P07858). Kind of experiment: Inhibition of human cathepsin B.
A further experiment deals with T1, Cathepsin K (Homo sapiens, UniProt P43235).
T1 sequence (P43235 whole entry): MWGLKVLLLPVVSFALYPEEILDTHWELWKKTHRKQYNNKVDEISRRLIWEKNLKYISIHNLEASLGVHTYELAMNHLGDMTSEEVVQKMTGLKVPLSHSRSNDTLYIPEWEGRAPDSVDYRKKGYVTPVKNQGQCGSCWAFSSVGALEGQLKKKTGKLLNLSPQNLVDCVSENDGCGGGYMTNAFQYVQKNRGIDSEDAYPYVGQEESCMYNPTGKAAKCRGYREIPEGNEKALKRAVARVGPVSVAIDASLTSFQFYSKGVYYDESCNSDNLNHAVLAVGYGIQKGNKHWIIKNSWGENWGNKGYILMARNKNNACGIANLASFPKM
Kind of experiment: Inhibition of human cathepsin K.

The target of the next experiment is Cathepsin S (Homo sapiens, UniProt P25774). Kind of experiment: Inhibition of human cathepsin S.
Sequence of Cathepsin S (P25774 whole entry): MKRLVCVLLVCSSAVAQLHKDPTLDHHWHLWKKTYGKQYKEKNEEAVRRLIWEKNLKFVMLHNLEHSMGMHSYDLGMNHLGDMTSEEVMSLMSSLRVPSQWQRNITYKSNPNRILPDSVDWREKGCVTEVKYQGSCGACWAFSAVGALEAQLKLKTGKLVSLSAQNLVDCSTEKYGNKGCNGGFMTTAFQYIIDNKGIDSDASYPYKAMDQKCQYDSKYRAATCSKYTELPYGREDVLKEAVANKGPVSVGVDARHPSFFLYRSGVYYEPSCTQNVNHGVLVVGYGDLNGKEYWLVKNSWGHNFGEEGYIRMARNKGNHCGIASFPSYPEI

Sequence of Procathepsin L (P07711 whole entry): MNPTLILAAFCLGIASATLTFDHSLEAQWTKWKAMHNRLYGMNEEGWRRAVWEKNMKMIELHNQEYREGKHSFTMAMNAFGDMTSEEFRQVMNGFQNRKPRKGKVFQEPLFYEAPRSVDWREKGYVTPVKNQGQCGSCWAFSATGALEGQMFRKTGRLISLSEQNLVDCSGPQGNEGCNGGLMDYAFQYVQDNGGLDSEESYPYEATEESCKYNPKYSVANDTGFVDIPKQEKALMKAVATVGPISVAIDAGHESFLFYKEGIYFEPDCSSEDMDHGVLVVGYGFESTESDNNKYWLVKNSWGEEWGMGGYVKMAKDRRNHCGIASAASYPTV

On to `CCC[C@H](NC(=O)OC(C)(C)C)C(=O)c1nnc(C(C)C)o1`, for which the Ki at Procathepsin L was over 150000 nM; on Cathepsin B, over 150000 nM; at Cathepsin K, 5600 nM; at Cathepsin S, 130000 nM.
In the case of `CCC[C@H](NC(=O)OC(C)(C)C)C(=O)c1nnc(-c2cccs2)o1`, the Ki on Procathepsin L came out at 63000 nM; on Cathepsin B, 120000 nM; at Cathepsin K, 810 nM; at Cathepsin S it was 12000 nM.
As for `CCC[C@H](NC(=O)C1(NC(=O)c2ccc(OC(F)(F)F)cc2)CCCCC1)C(=O)c1nnc(C(C)C)o1`, the Ki is 4600 nM at Procathepsin L, 430 nM on Cathepsin B, 35 nM on Cathepsin K and 800 nM on Cathepsin S.
For the compound `CCC[C@H](NC(=O)[C@H](CC(C)C)C(=O)OCc1ccccc1)C(=O)c1nnc(-c2ccco2)o1`, the Ki at Procathepsin L was 1 nM; at Cathepsin B it was 2 nM; on Cathepsin K, under 0.25 nM; at Cathepsin S, under 0.25 nM.
For the compound `CCC[C@H](NC(=O)C1(NC(=O)c2ccc(OC(F)(F)F)cc2)CCCCC1)C(=O)c1nnc(-c2ccccc2)o1`, the Ki on Procathepsin L was 19000 nM; at Cathepsin B, 73000 nM; on Cathepsin K it was 29 nM; at Cathepsin S it was 45000 nM.
Regarding `CCC[C@H](NC(=O)C1(NC(=O)c2ccc(OC(F)(F)F)cc2)CCCCC1)C(=O)c1nnc(-c2cccc(C(F)(F)F)c2)o1`, the Ki at Procathepsin L came out at 1400 nM; on Cathepsin B, 1100 nM; on Cathepsin K, 54 nM; at Cathepsin S it was 3300 nM.
As to `CCC[C@H](NC(=O)C1(NC(=O)c2ccc(OC(F)(F)F)cc2)CCCCC1)C(=O)c1nnc(-c2ccc(OC)cc2)o1`, the Ki at Procathepsin L was found to be 37000 nM; at Cathepsin B it was 57000 nM; on Cathepsin K, 22 nM; at Cathepsin S, 20000 nM.
Turning to `CCC[C@H](NC(=O)CCc1ccccc1)C(=O)c1nnc(-c2ccco2)o1`, the Ki at Procathepsin L is 100000 nM; at Cathepsin B it was 25000 nM; at Cathepsin K, 9600 nM; on Cathepsin S, 2600 nM.
Taken in the same sequence, the figures for `CCC[C@H](NC(=O)OCc1ccccc1)C(=O)c1nnc(-c2ccco2)o1` were 28000 nM, 34000 nM, 3000 nM and 2000 nM.
For the compound `CCC[C@H](NC(=O)C1(NC(=O)c2ccc(OC(F)(F)F)cc2)CCCCC1)C(=O)c1nnc(-c2cccs2)o1`, the Ki was 2900 nM at Procathepsin L, 270 nM at Cathepsin B, 5.2 nM on Cathepsin K and 760 nM at Cathepsin S.
Take `CCC[C@H](NC(=O)C1(NC(=O)c2ccc(N(C)C)cc2)CCCCC1)C(=O)c1nnc(-c2ccco2)o1`: the Ki on Procathepsin L is 960 nM; on Cathepsin B, 730 nM; at Cathepsin K, 0.95 nM; at Cathepsin S it was 700 nM.
`CCC[C@H](NC(=O)C1(NC(=O)c2ccc(OC(F)(F)F)cc2)CCCCC1)C(=O)c1nnc(-c2ccc(C(F)(F)F)cc2)o1`: the Ki is 11000 nM on Procathepsin L, 23000 nM on Cathepsin B, 550 nM at Cathepsin K and 13000 nM on Cathepsin S.
For `CCC[C@H](NC(=O)[C@H](CC(C)C)NCC(F)(F)F)C(=O)c1nnc(-c2ccco2)o1`, the Ki is 2100 nM on Procathepsin L, 48000 nM at Cathepsin B, 120 nM on Cathepsin K and 240 nM on Cathepsin S.
Turning to `CCC[C@H](NC(=O)Cc1ccccc1)C(=O)c1nnc(-c2ccco2)o1`, the Ki was determined as 150000 nM at Procathepsin L, 110000 nM at Cathepsin B, 52000 nM at Cathepsin K and 9200 nM on Cathepsin S.
As for `CCC[C@H](NC(=O)OC(C)(C)C)C(=O)c1nnc(-c2ccccc2OC)o1`, the Ki on Procathepsin L is over 150000 nM; on Cathepsin B, over 150000 nM; on Cathepsin K it was 17000 nM; at Cathepsin S it was 19000 nM.
In the case of `CCC[C@H](NC(=O)OC(C)(C)C)C(=O)c1nnc(-c2ccc(N(C)C)cc2)o1`, the Ki on Procathepsin L is 130000 nM; on Cathepsin B it was over 150000 nM; on Cathepsin K, 33000 nM; on Cathepsin S, 28000 nM.
For `CCC[C@H](NC(=O)OCC(C)C)C(=O)c1nnc(-c2ccco2)o1` the same measures were 14000 nM, 16000 nM, 500 nM and 380 nM.
For `CCC[C@H](NC(=O)C1(NC(=O)c2ccc(F)cc2)CCCCC1)C(=O)c1nnc(-c2ccco2)o1` the same measures were 2900 nM, 950 nM, 19 nM and 140 nM.
On to `CCC[C@H](NC(=O)C1(NC(=O)c2ccc(OC(F)(F)F)cc2)CCCCC1)C(=O)c1nnc(-c2ccco2)o1`, for which the Ki on Procathepsin L was 1000 nM; on Cathepsin B it was 220 nM; on Cathepsin K, 1.7 nM; on Cathepsin S it was 350 nM.
For `CCC[C@H](NC(=O)C1(NC(=O)c2ccc(OC(F)(F)F)cc2)CCCCC1)C(=O)c1nnc(C(C)(C)C)o1` the same measures were 10000 nM, 10000 nM, 1300 nM and 17000 nM.
On to `CCC[C@H](NC(=O)C1(NC(=O)c2ccc(OC(F)(F)F)cc2)CCCCC1)C(=O)c1nnc(-c2cccc(OC)c2)o1`, for which the Ki at Procathepsin L stood at 7500 nM; at Cathepsin B, 2100 nM; at Cathepsin K, 37 nM; on Cathepsin S it was 10000 nM.
Turning to `CCC[C@H](NC(=O)C1(NC(=O)OC(C)(C)C)CCCCC1)C(=O)c1nnc(-c2ccco2)o1`, the Ki on Procathepsin L came out at 18000 nM; at Cathepsin B it was 7300 nM; on Cathepsin K, 43 nM; at Cathepsin S it was 960 nM.
`CCC[C@H](NC(=O)C1(NC(=O)c2ccc(OC(F)(F)F)cc2)CCCCC1)C(=O)c1nnc(OC)o1`: the Ki at Procathepsin L is 160 nM; at Cathepsin B, 93 nM; on Cathepsin K it was 3.3 nM; at Cathepsin S it was 320 nM.
Consider `CCC[C@H](NC(=O)C1(NC(=O)c2ccc(OC(F)(F)F)cc2)CCCCC1)C(=O)c1nnc(CC)o1`, for which the Ki is 300 nM on Procathepsin L, 98 nM on Cathepsin B, 7.9 nM at Cathepsin K and 470 nM on Cathepsin S.
